From patent US10081647B2, “Phosphate substituted quinolizine derivatives useful as HIV integrase inhibitors” (Merck Sharp & Dohme Corp., priority 2015, dated 2018) come the findings set out here.

The subject of the assay is HIV-1 (NL4-3 strain). The assay can be described thus: Assay for inhibition of HIV replication (MT4-gag-GFP reporter cell line, kinetic assay). The conditions noted are these: IP from 4-parameter dose response curve. The format is cell-based. As for the experimental part: This assay is useful for assessing the ability of a compound of the present inventiongin to inhibit HIV replication. The assay is a kinetic assay that employs a reporter cell line (MT4-gag-GFP) to quantify the number of new cells infected in each round of replication.
MT4-GFP cells (250,000 cells/ml) are bulk-infected with HIV-1 (NL4-3 strain) at low multiplicity of infection (MOI) in RPMI+10% FBS for 24 hours. Cells are then washed once in RPMI+10% FBS and resuspended in RPMI+0% or 10% or 100% normal human serum (NHS). Test compounds are serial-diluted in DMSO using an ECHO liquid handler. The infected MT4-GFP cells are added to a 384-well poly-D-lysine coated black plate with clear bottom in which the diluted test compounds are placed. The cells are seeded at 8,000 cells per well and the final DMSO concentration is adjusted to 0.4%. The infected cells (Green GFP cells) are then quantified at both 24 and 48 hours post incubation using Acumen eX3. Viral reproductive ratio (R0) is determined using the number of infected cells at 48 hours divided by the number of infected cells at 24 hours. Percent viral growth inhibition is calculated by [1−(R−Rtripledrug)/(RDMSO−Rtripledrug)]*100. Compound potency IP or IC50 can be determined using a 4-parameter dose response curve analysis.

[1] abbreviates: Human immunodeficiency virus 1, NL43, infected MT4-GFP cells in RPMI + 0% normal human serum, read-out: WILD TYPE CELL ASSAY Viking IP (0% NHS).
Setting [2] is: infected MT4-GFP cells in 100% normal human serum, read-out: WILD TYPE CELL ASSAY Viking IP (100% NHS).
Where [3] appears, read: infected MT4-GFP cells in RPMI + 0% normal human serum, read-out: WILD TYPE CELL ASSAY Viking IP (0% NHS).
[4] abbreviates: Human immunodeficiency virus 1, NL43, infected MT4-GFP cells in 100% normal human serum, read-out: WILD TYPE CELL ASSAY Viking IP (100% NHS).

Like-named read-outs stand apart in the source and are kept apart here.

As for `COC1Cn2cc(C(=O)NCc3ccc(F)cc3F)c(=O)c(O)c2C(=O)C1(C)CCOCCP(=O)(O)O` (stereo not drawn) [Compound 58], the IC50 runs as follows: under setting [1], over 1.05 µM; under setting [2], over 8.4 µM.
In the case of `COC1Cn2cc(C(=O)NCc3ccc(F)cc3F)c(=O)c(O)c2C(=O)C1(C)CCOCCP(=O)(O)O` (stereo not drawn) [Compound 59], the IC50 is 4.26 µM under setting [2] and over 1.05 µM under setting [3].
On the same counts, the results for `COC1Cn2cc(C(=O)NCc3ccc(F)cc3F)c(=O)c(O)c2C(=O)C1(C)COCCP(=O)(O)O` (stereo not drawn) [Compound 37] are over 8 µM and over 1 µM.
Regarding `COCCC1(C)C(=O)c2c(O)c(=O)c(C(=O)NCc3ccc(F)cc3F)cn2CC1OCCP(=O)(O)O` (stereo not drawn) [Compound 84], the IC50 runs as follows: under setting [2], 2.93 µM; under setting [3], 0.492 µM.
In the case of `CC1(C)C(=O)c2c(O)c(=O)c(C(=O)NCc3ccc(F)cc3F)cn2CC1OCCCP(=O)(O)O` (stereo not drawn) [Compound 73], the IC50 reads like this: under setting [4], over 8.4 µM; under setting [1], 0.836 µM.
`CC1(C)C(=O)c2c(O)c(=O)c(C(=O)NCc3ccc(F)cc3F)cn2CC1NCCCP(=O)(O)O` (stereo not drawn) [Compound 108]: the IC50 is, setting by setting: under setting [4], 1.26 µM; under setting [1], 0.095 µM.
For `COCCC1(C)C(=O)c2c(O)c(=O)c(C(=O)NCc3ccc(F)cc3F)cn2CC1OCCP(=O)(O)O` (stereo not drawn) [Compound 82], the IC50 is over 8 µM under setting [2] and 0.729 µM under setting [3].
Taken in the same sequence, the figures for `CC1(C)C(=O)c2c(O)c(=O)c(C(=O)NCc3ccc(F)cc3F)cn2CC1OCCCP(=O)(O)O` (stereo not drawn) [Compound 74] were over 8.4 µM and over 1.05 µM.
On the same counts, the results for `COCCC1(C)C(=O)c2c(O)c(=O)c(C(=O)NCc3ccc(F)cc3F)cn2CC1OCCP(=O)(OCOC(=O)OC(C)C)OCOC(=O)OC(C)C` (stereo not drawn) [Compound 88] are 0.029 µM and 0.0009 µM.
As for `CC(C)OC(=O)OCOP(=O)(CCOC1Cn2cc(C(=O)NCc3ccc(F)cc3F)c(=O)c(O)c2C(=O)C1(C)C)OCOC(=O)OC(C)C` (stereo not drawn) [Compound 69], the IC50 is 0.025 µM under setting [2] and 0.0011 µM under setting [3].
As to `CCOP(=O)(CCCOCCC1(C)C(=O)c2c(O)c(=O)c(C(=O)NCc3ccc(F)cc3F)cn2CC1OC)OCC` (stereo not drawn) [Compound 44], the IC50 was 0.159 µM under setting [2] and 0.0072 µM under setting [3].
Taken in the same sequence, the figures for `COC1Cn2cc(C(=O)NCc3ccc(F)cc3F)c(=O)c(O)c2C(=O)C1(C)COCCP(=O)(OCOC(=O)OC(C)C)OCOC(=O)OC(C)C` (stereo not drawn) [Compound 40] were 0.118 µM and 0.0005 µM.
Taken in the same sequence, the figures for `COC1Cn2cc(C(=O)NCc3ccc(F)cc3F)c(=O)c(O)c2C(=O)C1(C)COCCP(=O)(OCOC(=O)OC(C)C)OCOC(=O)OC(C)C` (stereo not drawn) [Compound 42] were 0.407 µM and 0.0012 µM.
On the same counts, the results for `CCOP(=O)(CCOCC1(C)C(=O)c2c(O)c(=O)c(C(=O)NCc3ccc(F)cc3F)cn2CC1OC)OCC` (stereo not drawn) [Compound 34] are 0.238 µM and 0.0082 µM.
Turning to `CCOP(=O)(CCCOC1Cn2cc(C(=O)NCc3ccc(F)cc3F)c(=O)c(O)c2C(=O)C1(C)C)OCC` (stereo not drawn) [Compound 71], the IC50 was determined as 0.173 µM under setting [2] and 0.0095 µM under setting [3].
With `COC1Cn2cc(C(=O)NCc3ccc(F)cc3F)c(=O)c(O)c2C(=O)C1(C)COCCP(=O)(O)O` (stereo not drawn) [Compound 39], the IC50 by setting is: under setting [2], 6.93 µM; under setting [3], 0.337 µM.
Taken in the same sequence, the figures for `CCOP(=O)(CCOCCC1(C)C(=O)c2c(O)c(=O)c(C(=O)NCc3ccc(F)cc3F)cn2CC1OC)OCC` (stereo not drawn) [Compound 56] were 0.086 µM and 0.0046 µM.
Taken in the same sequence, the figures for `CC(C)OC(=O)OCOP(=O)(CCCOC1Cn2cc(C(=O)NCc3ccc(F)cc3F)c(=O)c(O)c2C(=O)C1(C)C)OCOC(=O)OC(C)C` (stereo not drawn) [Compound 76] were 2.77 µM and 0.045 µM.
On the same counts, the results for `CC(C)OC(=O)OCOP(=O)(CCCOC1Cn2cc(C(=O)NCc3ccc(F)cc3F)c(=O)c(O)c2C(=O)C1(C)C)OCOC(=O)OC(C)C` (stereo not drawn) [Compound 75] are 0.191 µM and 0.0063 µM.
Consider `COC1Cn2cc(C(=O)NCc3ccc(F)cc3F)c(=O)c(O)c2C(=O)C1(C)COCCP(=O)(O)O` (stereo not drawn) [Compound 38], for which the IC50 under setting [2] amounted to 6.05 µM and the IC50 under setting [3] was determined as 0.738 µM.
On the same counts, the results for `COC1Cn2cc(C(=O)NCc3ccc(F)cc3F)c(=O)c(O)c2C(=O)C1(C)CCOCCCP(=O)(O)O` (stereo not drawn) [Compound 50] are over 8.4 µM and over 1.05 µM.
Take `CCOP(=O)(CCCOC1Cn2cc(C(=O)NCc3ccc(F)cc3F)c(=O)c(O)c2C(=O)C1(C)C)OCC` (stereo not drawn) [Compound 72]: the IC50 was determined as 0.923 µM under setting [2] and 0.026 µM under setting [3].
Taken in the same sequence, the figures for `COC1Cn2cc(C(=O)NCc3ccc(F)cc3F)c(=O)c(O)c2C(=O)C1(C)CCOCCP(=O)(O)O` (stereo not drawn) [Compound 60] were 5.18 µM and 0.765 µM.
On the same counts, the results for `COC1Cn2cc(C(=O)NCc3ccc(F)cc3F)c(=O)c(O)c2C(=O)C1(C)COCCP(=O)(OCOC(=O)OC(C)C)OCOC(=O)OC(C)C` (stereo not drawn) [Compound 41] are over 8 µM and 0.00097 µM.
For the compound `CCOP(=O)(CCNC1Cn2cc(C(=O)NCc3ccc(F)cc3F)c(=O)c(O)c2C(=O)C1(C)C)OCC` (stereo not drawn) [Compound 101], the IC50 came out at 0.05 µM under setting [1] and 0.891 µM under setting [2].
For `COC1Cn2cc(C(=O)NCc3ccc(F)cc3F)c(=O)c(O)c2C(=O)C1(C)CCOCCP(=O)(OCOC(=O)OC(C)C)OCOC(=O)OC(C)C` (stereo not drawn) [Compound 64], the IC50 by setting is: under setting [2], 0.289 µM; under setting [3], 0.0029 µM.
With `CCOP(=O)(CCCOC1Cn2cc(C(=O)NCc3ccc(F)cc3F)c(=O)c(O)c2C(=O)C1(C)CCOC)OCC` (stereo not drawn) [Compound 90], the IC50 was 0.123 µM under setting [2] and 0.015 µM under setting [3].
With `CCOP(=O)(CCNC1Cn2cc(C(=O)NCc3ccc(F)cc3F)c(=O)c(O)c2C(=O)C1(C)C)OCC` (stereo not drawn) [Compound 102], the IC50 by setting is: under setting [2], 0.15 µM; under setting [3], 0.025 µM.
On the same counts, the results for `CCOP(=O)(CCOC1Cn2cc(C(=O)NCc3ccc(F)cc3F)c(=O)c(O)c2C(=O)C1(C)CCOC)OCC` (stereo not drawn) [Compound 80] are 2.75 µM and 0.378 µM.
Taken in the same sequence, the figures for `COCCC1(C)C(=O)c2c(O)c(=O)c(C(=O)NCc3ccc(F)cc3F)cn2CC1OCCP(=O)(O)O` (stereo not drawn) [Compound 81] were 2.12 µM and 0.665 µM.
With `CCOP(=O)(CCOCC1(C)C(=O)c2c(O)c(=O)c(C(=O)NCc3ccc(F)cc3F)cn2CC1OC)OCC` (stereo not drawn) [Compound 32], the IC50 under setting [2] was found to be 0.425 µM and the IC50 under setting [3] came out at 0.0075 µM.
On to `CCOP(=O)(CCOC1Cn2cc(C(=O)NCc3ccc(F)cc3F)c(=O)c(O)c2C(=O)C1(C)CCOC)OCC` (stereo not drawn) [Compound 79], for which the IC50 under setting [2] worked out at 0.177 µM and the IC50 under setting [3] is 0.015 µM.
On the same counts, the results for `COC1Cn2cc(C(=O)NCc3ccc(F)cc3F)c(=O)c(O)c2C(=O)C1(C)CCOCCP(=O)(OCOC(=O)OC(C)C)OCOC(=O)OC(C)C` (stereo not drawn) [Compound 62] are 4.7 µM and 0.014 µM.
Regarding `COC1Cn2cc(C(=O)NCc3ccc(F)cc3F)c(=O)c(O)c2C(=O)C1(C)CCOCCP(=O)(O)O` (stereo not drawn) [Compound 61], the IC50 turned out to be 2.5 µM under setting [2] and 0.97 µM under setting [3].
Turning to `COCCC1(C)C(=O)c2c(O)c(=O)c(C(=O)NCc3ccc(F)cc3F)cn2CC1OCCP(=O)(OCOC(=O)OC(C)C)OCOC(=O)OC(C)C` (stereo not drawn) [Compound 87], the IC50 came out at 0.021 µM under setting [2] and 0.0008 µM under setting [3].
As for `CC1(C)C(=O)c2c(O)c(=O)c(C(=O)NCc3ccc(F)cc3F)cn2CC1OCCP(=O)(O)O` (stereo not drawn) [Compound 67], the IC50 by setting is: under setting [4], 4.26 µM; under setting [1], 0.669 µM.
In the case of `CC(C)OC(=O)OCOP(=O)(CCCNC1Cn2cc(C(=O)NCc3ccc(F)cc3F)c(=O)c(O)c2C(=O)C1(C)C)OCOC(=O)OC(C)C` (stereo not drawn) [Compound 109], the IC50 runs as follows: under setting [2], 3.52 µM; under setting [3], 0.038 µM.
As for `COCCC1(C)C(=O)c2c(O)c(=O)c(C(=O)NCc3ccc(F)cc3F)cn2CC1OCCP(=O)(OCOC(=O)OC(C)C)OCOC(=O)OC(C)C` (stereo not drawn) [Compound 85], the IC50 is, setting by setting: under setting [2], 0.0077 µM; under setting [3], 0.000291 µM.
Regarding `CCOP(=O)(CCCOCCC1(C)C(=O)c2c(O)c(=O)c(C(=O)NCc3ccc(F)cc3F)cn2CC1OC)OCC` (stereo not drawn) [Compound 47], the IC50 under setting [2] came out at 4.6 µM and the IC50 under setting [3] was 0.298 µM.
Taken in the same sequence, the figures for `CCOP(=O)(CCOCC1(C)C(=O)c2c(O)c(=O)c(C(=O)NCc3ccc(F)cc3F)cn2CC1OC)OCC` (stereo not drawn) [Compound 35] were 0.086 µM and 0.0035 µM.
For `CCOP(=O)(CCCOCCC1(C)C(=O)c2c(O)c(=O)c(C(=O)NCc3ccc(F)cc3F)cn2CC1OC)OCC` (stereo not drawn) [Compound 45], the IC50 runs as follows: under setting [2], 0.3 µM; under setting [3], 0.0082 µM.
On the same counts, the results for `CCOP(=O)(CCCOCCC1(C)C(=O)c2c(O)c(=O)c(C(=O)NCc3ccc(F)cc3F)cn2CC1OC)OCC` (stereo not drawn) [Compound 46] are 0.102 µM and 0.0042 µM.
